In article PMC8949075, “Evaluation of Two Novel Hydantoin Derivatives Using Reconstructed Human Skin Model Episkin^TM: Perspectives for Application as Potential Sunscreen Agents” (Molecules, 2022):

What was measured:
[1] = Relative lipophilicity by reversed-phase thin-layer chromatography; format: physicochemical; conditions: RP-TLC, RP-18 plates, methanol/phosphate buffer pH 7.4, extrapolated to 0% methanol
Method: The experimental log P was determined by reversed-phase thin-layer chromatography (RP-TLC). TLC was carried out on plates precoated with silica gel RP-18 F254 (Merck, Darmstadt, Germany). The mobile phases used were the mixtures of methanol (commercially available material of reagent grade) and 100 mM potassium–phosphate buffer (pH = 7.4), with the methanol content ranging from 95 to 65% (v/v) in 5% increments. A total of 10 μL of test compound solutions in methanol (1 mg/mL) were spotted on the plates. The plates were developed in chromatographic chambers previously saturated with solvent for 1 h. After development (at room temperature in a normal chamber: 22 × 22 × 7 cm) and the drying of the plates, the spots were observed under a UV lamp (λ = 254 nm). The Rf values were mean values from two independent chromatographic runs. The experimental Rf was converted into the RM value according to the following equation [66]: RM = log (1/Rf − 1). The calculated values were extrapolated for a 0% methanol concentration (RM0) using the equation: RM = RM0 + bC, where C is the concentration (%, v/v) of methanol in the mobile phase and b is the regression term.

[2] = In vitro microsomal biotransformation; format: in vitro ADME, human; conditions: for t1/2 (in vitro half time): HLMs 0.8 mg/mL; for t1/2 (in vitro half time) / microsomal CLint at 20 µM / half-life at 20 µM: 20 µM, 37 °C; for Biotransformation (main metabolite M, ΔM −28): in the absence or presence of NADPH; for microsomal CLint at 20 µM / half-life at 20 µM: human, liver microsomes, pH 7.4, HLMs 0.8 mg/mL; for microsomal CLint at 20 µM: read-out: Clint (intrinsic clearance); for half-life at 20 µM: read-out: t1/2 (in vitro half time)
Method: The microsome incubation procedure was adapted from the previous studies. Reaction mixtures comprising the test compound JH3 or JH10 (20 µM in methanol), human liver microsomes (HLMs; Sigma Aldrich, Darmstadt, Germany) (0.8 mg/mL), and 100 mM potassium phosphate buffer (pH 7.4) were preincubated before the addition of NADPH-regenerating system (NADP, glucose-6-phosphate and glucose-6-phosphate dehydrogenase in potassium phosphate buffer). The NADPH-regenerating system and buffer components were obtained from Sigma-Aldrich (Darmstadt, Germany). Incubation was conducted for different time points (i.e., 5, 15, and 30 min) with temperature set at 37 °C. The reaction was quenched with ice-cold methanol, followed by the addition of internal standard (IS)–PTX (20 µM). The mixture was then centrifuged.
Supernatant analysis was performed using UHPLC/MS (Waters Corporation, Milford, MA, USA). Two control samples were prepared with each incubation set. The first, a mixture of a test compound and potassium phosphate buffer, and without the addition of HLMs nor the NADPH-regenerating system, was used to exclude the possibility of hydrolysis facilitated by the buffer solution. The second, a mixture of a test compound, potassium phosphate buffer and HLMs, but without the NADPH-regenerating system solution, was designed to evaluate the production of metabolites in the presence of enzymes but the absence of NADPH [14, 82]. The assays were repeated two times. The in vitro half time (t1/2) for JH3 was established from the slope of the linear regression of ln percent parent compound remaining against incubation time. Intrinsic clearance (Clint) was obtained from the equation: Clint = (volume of incubation [µL] (i.e., 250 µL)/protein in the incubation [mg] (i.e., 0.2 mg)) × 0.693/t1/2 [83, 84, 85].

[3] = parameters: method as in PMID 31238526; conditions: 2% (w/w) macrogol formulations; cited from earlier work
CHO-K1 cells = test: In vitro micronucleus assay; format: cell-based, Chinese hamster; conditions: for DB (dicentric bridges) / MN (micronuclei) / NB (nuclear buds): count in 1000 binucleated cells per slide; for effect on MN, DB, NB and NDI: 1, 5 and 10 µM
Method: The CHO-K1 cells were seeded in 6-well plates at a density of 1 × 10^6 cells/well and incubated overnight at 37 °C, 5% CO2 atmosphere. […] The test compounds and 4MBC were dissolved in DMSO (solvent, final concentration 0.1%) and ethanol (co-solvent, final concentration 1%). After 24 h of treatment, the medium was removed, and the cells were rinsed with PBS. Then, fresh medium containing cytochalasin B (CytB; Sigma Aldrich, Darmstadt, Germany) (4.5 µg/mL) was added and incubation was continued for the next 24 h.
After the incubation period, the cells were washed with fresh medium, detached by trypsinization, and centrifuged. The supernatant was discarded and 5 mL of 1% ice-cold sodium citrate (Chempur, Piekary Śląskie, Poland) was added to the cell pellet, which was then gently resuspended. After 15 s, 5 mL of freshly prepared fixative solution (methanol/acetic acid, 3:1) and 4 drops of formaldehyde were added. The cell suspension was centrifuged (5 min, 1000 rpm), the supernatant was discarded again, and the pellet was fixed in fixative mixture two more times, without formaldehyde. After the third fixation, part of the supernatant was removed, and around 1 mL of the supernatant was retained to resuspend the cells. The suspension was then dripped onto clean, previously frozen, glass slides to dry. After air-drying, the slides were stained with Giemsa dye (1:20 in phosphate buffer) for 5 min [56, 78, 79].
One thousand binucleated cells per slide with intact nuclei of equal size, similar pattern of cytoplasm staining, intact membrane, and distinguishable from adjacent cells, without apoptotic and necrotic cells were analyzed. Only the micronuclei with the same morphology and color of the main nuclei, with 1/16 to 1/3 of the major nucleus diameter, unrefringent and not overlapping or connected to the main nuclei were counted. Moreover, the presence of dicentric bridges (DB) and nuclear buds (NB) in the binucleated cells was analyzed. The nuclear division index (NDI) was calculated using the following formula: [(1 × MOC) + (2 × BC) + (3 × MUC)]/N, where MOC is the number of mononuclear cells, BC is the number of binuclear cells, MUC represents the number of multinuclear cells, and N is the total number of scored cells. The micronucleus incidence was presented as a number of micronuclei per 1000 examined binuclear cells. The experiment was conducted two times with three repetitions for each condition.

in vitro = conditions: human, 26 mg/cm^2
Description: (§1) The Episkin^TM model (aged 13 days, large/1.07 cm^2 surface area) was provided by Episkin (Lyon, France). The Episkin^TM kit consists of 12 reconstructed epidermis units made of type I collagen matrix, representing the dermis, surfaced with a film of type IV collagen, upon which is laid a stratified and differentiated epidermis derived from human keratinocytes [17]. Upon receipt of the tissues, the culture inserts were removed from the agarose-nutrient solution and transferred into 12-well plates containing 2 mL of the maintenance medium (MM) per well. The MM was provided by the manufacturer. Tissues were then incubated for 24 h at 37 °C in a humidified atmosphere of 5% CO2 before use in the permeation, irritation, or phototoxicity experiments.
(§2) Prior to the irritation experiments, the Episkin^TM inserts were washed with sterile PBS to remove traces of the MM and transferred into new 12-well plates containing 2 mL of fresh MM. […] Sodium dodecyl sulphate (SDS; Sigma-Aldrich, Darmstadt, Germany) (5% in water) and PBS were used as positive and negative controls, respectively. Both controls were applied topically (26 mg/cm^2). Samples were tested in two independent experiments using three tissues for each chemical, positive, or negative control.
(§3) Then, the tissues were placed in new 12-well plates containing 2 mL of the MM per well and incubated for an additional 42 h at 37 °C in a humidified atmosphere of 5% CO2 as post-treatment incubation time. At the end of this period, the culture media of each tissue were collected and stored at −20 °C for Il-1α measurement.
(§4) The cell viability was assessed by a subsequent incubation of the tissues for 3 h with freshly prepared 3-(4,5-dimethylthiazol-2-yl)-2,5-diphenyltetrazolium bromide (MTT; Sigma-Aldrich, Darmstadt, Germany) solution (0.3 mg/mL in assay medium (AM)) in a 12-well plate. Then, a biopsy of the epidermis was done using a puncher (Episkin, Lyon, France), and the precipitated formazan was extracted using 500 µL of acidified isopropanol (Chempur, Piekary Śląskie, Poland) (0.04 N HCl in isopropanol) for 48 h (4 °C). At the end of the extraction period, 200 µL of each sample were transferred to 96-well plates for absorbance measurements at 570 nm (A570) [70, 71, 72, 73]. […] Viability (percent of control) was determined by dividing A570 of experimental wells by A570 of control wells × 100%. The test substance was considered as an irritant when mean tissue viability was equal or less than 50% [16, 17].
(§5) Il-1α measurement was conducted by a classic enzyme-linked immunosorbent assay (ELISA) technique (Cayman Chemical, Ann Arbor, MI, USA). Firstly, 100 µL of the samples were added into a 96-well ready to use microtiter plate (precoated with a monoclonal antibody specific for Il-1α (Il-1α capture antibody). Secondly, 100 µL of an acetylcholinesterase:Fab’ Conjugate (AChE:Fab’) was added to each well. The plate was covered with plastic film and incubated overnight at 4 °C. At the end of the incubation period the contents of each well were removed and rinsed five times with wash buffer. Next, 200 µL of Ellman’s reagent (containing the substrate for AChE) was added to each well, the plate was covered with plastic film and developed in the dark using an orbital shaker. The absorbance of the wells was measured at 410 nm. Il-1α concentrations were then calculated using the standard curve.

[4] = tested on: Episkin^TM reconstructed human epidermis; test: Episkin skin irritation test (MTT viability, Il-1α release; OECD 439); conditions: for Il-1α release: 26 mg/cm^2 topical, 15 min exposure, 42 h post-incubation; for skin irritation classification: 50% viability cut-off (OECD prediction model)
Description: as §1, §2, §3, §4, §5

Structure (SMILES): CCOC(=O)CN1C(=O)/C(=C/c2ccc(OC)cc2)N(CC(=O)OCC)C1=O [JH10, diethyl 2,2′-((Z)-4-(4-methoxybenzylidene)-2,5-dioxoimidazolidine-1,3-diyl)diacetate]
- relative lipophilicity value (RM0) [1]: 2.46
- t1/2 (in vitro half time) [2]: <<5 - min
- parent compound detected ([2]; HLMs, 5 min time point): less than 0.5%
- Biotransformation (main metabolite M, ΔM −28) ([2]; HLMs): - Hydrolysis
- microsomal CLint at 20 µM [2]: > 172 µL/min/mg
- half-life at 20 µM [2]: ~5 min
- SPFin vitro (sun protection factor) [3]: 3.07 ± 0.04
- UVA PF [3]: 2.59 ± 0.23
- UVA/UVB Ratio [3]: 0.84 ± 0.08
- λc [3]: 366 nm
- NDI (nuclear division index) (CHO-K1 cells; 1 µM): 1.31
- DB (dicentric bridges) (CHO-K1 cells; 1 µM): 3.5
- MN (micronuclei) (CHO-K1 cells; 1 µM): 9.0 ± 3.9
- NB (nuclear buds) (CHO-K1 cells; 1 µM): 4.3
- NDI (nuclear division index) (CHO-K1 cells; 5 µM): 1.38
- DB (dicentric bridges) (CHO-K1 cells; 5 µM): 3.8
- MN (micronuclei) (CHO-K1 cells; 5 µM): 11.2 ± 3.6
- NB (nuclear buds) (CHO-K1 cells; 5 µM): 5.2
- NDI (nuclear division index) (CHO-K1 cells; 10 µM): 1.47
- DB (dicentric bridges) (CHO-K1 cells; 10 µM): 3.5
- MN (micronuclei) (CHO-K1 cells; 10 µM): 9.5 ± 3.7
- NB (nuclear buds) (CHO-K1 cells; 10 µM): 3.2
- effect on MN, DB, NB and NDI (CHO-K1 cells): did not significantly alter any of the evaluated parameters
- viability at 15 min (in vitro): ≥ 50%
- Il-1α release [4]: no significant increase
- skin irritation classification [4]: non-irritants

Structure (SMILES): CCOC(=O)CN1C(=O)/C(=C/C=C/c2ccc(OC)cc2)N(CC(=O)OCC)C1=O [JH3, diethyl 2,2′-((Z)-4-((E)-3-(4-methoxyphenyl)allylidene)-2,5-dioxoimidazolidine-1,3-diyl)diacetate]
- relative lipophilicity value (RM0) [1]: 3.22
- t1/2 (in vitro half time) [2]: 5 - min
- parent compound remaining ([2]; HLMs, 15 min time point): Approximately 5%
- Biotransformation (main metabolite M, ΔM −28) ([2]; HLMs): - Hydrolysis
- microsomal CLint at 20 µM [2]: > 172 µL/min/mg
- half-life at 20 µM [2]: ~5 min
- SPFin vitro (sun protection factor) [3]: 1.68 ± 0.04
- UVA PF [3]: 6.83 ± 0.05
- UVA/UVB Ratio [3]: 4.50 ± 0.32
- λc [3]: 391 nm
- NDI (nuclear division index) (CHO-K1 cells; 1 µM): 1.45
- DB (dicentric bridges) (CHO-K1 cells; 1 µM): 3.8
- MN (micronuclei) (CHO-K1 cells; 1 µM): 10.1 ± 3.3
- NB (nuclear buds) (CHO-K1 cells; 1 µM): 3.6
- NDI (nuclear division index) (CHO-K1 cells; 5 µM): 1.40
- DB (dicentric bridges) (CHO-K1 cells; 5 µM): 4.1
- MN (micronuclei) (CHO-K1 cells; 5 µM): 10.5 ± 3.9
- NB (nuclear buds) (CHO-K1 cells; 5 µM): 3.5
- NDI (nuclear division index) (CHO-K1 cells; 10 µM): 1.32
- DB (dicentric bridges) (CHO-K1 cells; 10 µM): 3.6
- MN (micronuclei) (CHO-K1 cells; 10 µM): 12.0 ± 4.2
- NB (nuclear buds) (CHO-K1 cells; 10 µM): 5.4
- effect on MN, DB, NB and NDI (CHO-K1 cells): did not significantly alter any of the evaluated parameters
- viability at 15 min (in vitro): ≥ 50%
- Il-1α release [4]: no significant increase
- skin irritation classification [4]: non-irritants
